Data as given in article PMC4862670, “Biochemical Effect of Resistance Mutations against Synergistic Inhibitors of RSV RNA Polymerase” (PLoS ONE, 2016).
Values joined by “and” are separate entries in the source; they are usually repeats but may differ in a detail not shown here. Equal entries are not always repeated. Where two headings read alike, the source gives them in different places.

Tests used:
[1] = biological target: Y1631H RSV polymerase (Human respiratory syncytial virus A, UniProt P28887, Y1631H); assay: Single nucleotide incorporation, Y1631H mutant; format: biochemical
[2] = biological target: T1, WT RSV L-P (Human respiratory syncytial virus A, UniProt P28887); conditions: cited from earlier work
T1 construct: made in house; host or cells: insect cells

[3] = biological target: T2, QUAD RSV L-P (M628L, A789V, L795I, I796V) (Human respiratory syncytial virus A, UniProt P28887, A789V/I796V/L795I/M628L); conditions: cited from earlier work
[4] = biological target: T1, WT RSV L-P; format: biochemical
Method: The recombinant RSV polymerase complex was produced by co-expressing the L and P proteins of RSV in insect cells as previously described. Unless otherwise specified, RNA polymerase reaction samples consisted of 0.2 μM of an oligonucleotide template sequence derived from the RSV leader promoter (5'-[…]-3') and 0.2 μM recombinant RSVL-P polymerase together with 200 μM 5'-pACGC primer, mixed in a buffer containing 20 mM Tris pH 7.5, 10 mM KCl, 2 mM dithiothreitol, 0.5% triton X-100, 10% DMSO, 0.2 U/μL RNasin (Ambion), and 6 mM MgCl2. Reactions were started by adding specific NTPs to a final volume of 10 μL and incubated at 30°C. The radioisotope tracer used for this assay was α^33P-GTP. To measure the incorporation of GTP analogs, the oligonucleotide template sequence was modified to 5'-[…]-3'. Reactions were stopped after 30 minutes by adding an equal volume of gel loading buffer (Ambion). Samples were denatured at 95°C for 5 minutes, and run for 1.5 hours at 80 W in a 22.5% polyacrylamide urea sequencing gel. After the gel was dried, the product of migration was exposed to a phosphor-screen and scanned on a Typhoon phosphorimager (GE Healthcare) and quantified using ImageQuant (GE Healthcare). For each enzyme, the level of NTP analog discrimination was calculated as Km NTP analog / Km NTP, and the corresponding resistance as Mutantdiscrimination / WTdiscrimination.

[5] = biological target: T2, QUAD RSV L-P (M628L, A789V, L795I, I796V); assay: Single nucleotide incorporation (primer extension) by recombinant RSV L-P, QUAD mutant; format: biochemical; conditions: for Km / Discrimination (Km NTP analog / Km NTP): QUAD RSV L-P; for Km: single nucleotide incorporation; for Resistance (QUADdiscrimination / WTdiscrimination): QUAD vs WT RSV L-P
[6] = test system: WT RSV L polymerase-dependent luciferase activity; assay: cells; format: cell-based, Respiratory syncytial virus (RSV); conditions: human respiratory syncytial virus, HEp-2 cells, minigenome luciferase
[7] = test system: QUAD RSV L polymerase-dependent luciferase activity; assay: cells; format: cell-based, Respiratory syncytial virus (RSV), HEp-2 cells
[8] = test system: Nc1ccn([C@@H]2O[C@](CCl)(COP(=O)(O)OP(=O)(O)OP(=O)(O)O)[C@@H](O)[C@H]2O)c(=O)n1; assay: purified protein, by the assay type; conditions: pH 7.5
[9] = test system: [N-]=[N+]=N[C@]1(COP(=O)(O)OP(=O)(O)OP(=O)(O)O)O[C@@H](n2ccc(N)nc2=O)[C@H](F)[C@@H]1O; assay: purified protein, by the assay type; conditions: pH 7.5
[10] = biological target: RSV polymerase containing the Y1631H mutation in the L subunit (Human respiratory syncytial virus A, UniProt P28887, Y1631H); assay: Biotin-primer extension RdRp assay, Y1631H; format: biochemical; conditions: Y1631H IC50 vs WT IC50
[11] = biological target: T1, WT RSV L-P; format: biochemical; conditions: 10 μM
[12] = biological target: T3, RSV L-P dimer (Human respiratory syncytial virus A, UniProt P28887); assay: Ni-NTA pull-down assay of RSV L-P; format: binding; conditions: 10 μM, 30 minutes pre-incubation
T3 construct: made in house; host or cells: insect cells
Method: The enzyme-inhibitor complex was pre-incubated for 30 minutes, after which nickel beads were used to pull down the histidine-tagged P subunit. The bound protein was washed on the beads and visualized by SDS PAGE. When the experiment was performed in the presence of DMSO, the untagged L subunit remained noncovalently bound to P (Fig 6A, lane 1).
Beads were collected by centrifugation, and washed in 500 μL buffer containing 20mM Tris pH 7.5, 10 mM KCl, 6 mM MgCl2, 0.01% Triton X-100, and 2 mM DTT. Beads were resuspended in 20 μL loading buffer (4% SDS, 20% glycerol, 0.12M Tris pH 7, and 10% BME) and heated for 5 minutes at 95°C. Samples were run on a 4% to 12% SDS PAGE gel alongside PageRuler prestained marker (Invitrogen) and stained using SimplyBlue SafeStain (Thermo Fisher Scientific).

[13] = WT RSV L-P, single nucleotide incorporation

CTP [reference compound]
Km [1]: 0.042 ± 0.009 µM
Km ([2]; WT RSV L-P, n = 4, read-out: Km CTP): 0.056 ± 0.01 µM
Km ([3]; QUAD RSV L-P, n = 2, read-out: Km CTP): 0.028 ± 0.005 µM

GTP [reference compound]
Km [4, 13]: 1.1 ± 0.4 µM
Km [5]: 0.3 ± 0.1 µM

2'F-4'ClCH2-ATP
Chain termination effect [4]: immediate chain terminator
Discrimination (Km NTP analog / Km NTP) [4]: 12 fold and 12±2.5 fold
Km [4]: 27 ± 7.8 µM
Discrimination (Km NTP analog / Km NTP) [5]: 12.9±1.1 fold
Km [5]: 23.6 ± 5.8 µM
Resistance (QUADdiscrimination / WTdiscrimination) [5]: 1.1 fold

Nc1ccn([C@@H]2O[C@](CCl)(COP(=O)(O)OP(=O)(O)OP(=O)(O)O)[C@@H](O)[C@H]2F)c(=O)n1 [ALS-8112-TP, 2'F-4'ClCH2-cytidine triphosphate]
Resistance (QUADdiscrimination / WTdiscrimination) ([5]; listed as chloromethyl (ClCH2)): > 3 fold
Discrimination of the CTP analog [1]: 18 fold
Discrimination ([2]; WT RSV polymerase): 13 fold
Resistance (increase in discrimination by QUAD) ([3]; QUAD vs WT RSV L-P): 4.6 fold

C[C@@H](F)[C@]1(COP(=O)(O)OP(=O)(O)OP(=O)(O)O)O[C@@H](n2ccc(N)nc2=O)[C@H](F)[C@@H]1O [1-fluoroethyl (FCH3CH2)]
Resistance (QUADdiscrimination / WTdiscrimination) [5]: > 3 fold

Nc1ccn([C@@H]2O[C@@](COP(=O)(O)OP(=O)(O)OP(=O)(O)O)(C3CC3)[C@@H](O)[C@H]2F)c(=O)n1 [cyclopropyl (CH2CH2CH2)]
Resistance (QUADdiscrimination / WTdiscrimination) [5]: no resistance

ATP [reference compound]
Km [4, 13]: 2.2 ± 0.2 µM
Km [5]: 1.8 ± 0.3 µM

2'F-4'ClCH2-GTP
Chain termination effect [4]: did not completely block RNA synthesis
Discrimination (Km NTP analog / Km NTP) [4]: 5.6±0.6 fold
Km [4]: 5.8 ± 1.4 µM
Discrimination (Km NTP analog / Km NTP) [5]: 94.4 fold and 94.4±17.7 fold
Km [5]: 31.1 ± 15 µM
Resistance (QUADdiscrimination / WTdiscrimination) [5]: 17 fold

[N-]=[N+]=N[C@]1(CO)O[C@@H](n2ccc(N)nc2=O)[C@H](F)[C@@H]1O [2'F-4'N3-cytidine]
EC50 [6]: 1300 ± 300 nM
EC50 ([7]; human respiratory syncytial virus, QUAD L, HEp-2 cells, minigenome luciferase): 2200 ± 500 nM

[N-]=[N+]=N[C@]1(COP(=O)(O)OP(=O)(O)OP(=O)(O)O)O[C@@H](n2ccc(N)nc2=O)[C@H](F)[C@@H]1O [2'F-4'N3-CTP]
Resistance (QUADdiscrimination / WTdiscrimination) ([5]; listed as azido (N3-)): no resistance

Nc1ccn([C@@H]2O[C@](CF)(COP(=O)(O)OP(=O)(O)OP(=O)(O)O)[C@@H](O)[C@H]2F)c(=O)n1 [fluoromethyl (FCH2)]
Resistance (QUADdiscrimination / WTdiscrimination) [5]: > 3 fold

Nc1ccn([C@@H]2O[C@@](CO)(CBr)[C@@H](O)[C@H]2F)c(=O)n1 [2'F-4'BrCH2-cytidine]
EC50 [6]: 1600 ± 600 nM
Loss in inhibition potency in the presence of the QUAD mutations ([7]; QUAD vs WT minigenome): 47 fold

(Human respiratory syncytial virus A2)
Km [8]: 19.7 ± 6.7 µM
Km [9]: 0.62 ± 0.042 µM

CSC[C@]1(COP(=O)(O)OP(=O)(O)OP(=O)(O)O)O[C@@H](n2ccc(N)nc2=O)[C@H](F)[C@@H]1O [methyl-thio-methyl (CH3SCH2)]
Resistance (QUADdiscrimination / WTdiscrimination) [5]: no resistance

O=C(NC1CC1)c1cc2c(s1)-c1ccccc1N(C(=O)c1ccc(NC(=O)c3cccnc3N3CCC4(CC3)COC4)cc1)CC2 [AZ-27]
Resistance compared to the WT enzyme [10]: 940 fold
Inhibition of +1 and +2 RNA products ([11]; 30-minute reaction): no inhibition
Inhibition of +4–7 RNA products ([11]; 30-minute reaction, position +4 and beyond): 75–85%
Inhibition behavior with respect to NTPs ([11]; ATP+CTP from 1 to 100 μM): non-competitive inhibition behavior
Effect on L binding to P (L-P complex stability) [12]: did not inhibit the ability of L to bind to P

Nc1ccn([C@@H]2O[C@](CBr)(COP(=O)(O)OP(=O)(O)OP(=O)(O)O)[C@@H](O)[C@H]2F)c(=O)n1 [bromomethyl (BrCH2)]
Resistance (QUADdiscrimination / WTdiscrimination) [5]: > 3 fold
